# Source: US8993624B2, “Method of preventing and treating inflammatory diseases and disorders with abscisic acid” (Virginia Tech Intellectual Properties, Inc., priority 2010, dated 2015)
# Key:
# NF-κB p65 = NF-κB p65 activity in BMM stimulated with LPS/IFN-γ; type: cell-based, mouse
# Description: Bone Marrow-derived Macrophage (BMM) Cultures—Bone marrow cells from PPAR γ flfl; MMTV-Cre− (flfl-Cre−) and flfl-Cre+ mice were cultured in DMEM with M-CSF (50 ng/ml) for 7 days. Fresh media with M-CSF was added on day 3. […] Following differentiation macrophages were directly stimulated with LPS (100 ng/ml) as previously described for 12 hours (21). ABA was added to macrophage cultures at a concentration of 2.5 μM. […]
# NF-κB and NFAT activities—Spleens were diced into smaller pieces in lysis buffer containing dithiothreitol and a protease inhibitor cocktail and then further disrupted using a dounce ground glass homogenizer at 4° C. […] The extracts were used to perform a Bradford-based assay for quantifying the protein concentrations and stored at −80° C. NF-κB and NFATc1 activities were measured as previously described (13) by using the Trans-AM™ NF-κB p65 and the Trans-AM™ NFATc1 ELISA-based assays (Active Motif), respectively per the manufacturer's instructions.
# [1] = tested on: LPS-induced splenic gene expression; test: LPS challenge in mice, spleen microarray and network analysis
# Description: Microarray data analysis—After homogenization of spleens, total RNA was extracted and purified using the RNAeasy system according to manufacturer's instructions (Qiagen Valencia, Calif.). The QIAGEN RNase-free DNase supplement kit was used to ensure that the RNA was free from DNA contamination. RNA was then processed and labeled according to the standard target labeling protocols and the samples were hybridized, stained, and scanned per standard Affymetrix protocols at VBI core laboratory on Mouse 430 2.0 expression arrays (Affymetrix Inc., Santa Clara, Calif.). All statistical analysis of the data was performed within the R statistical environment—Version 2.9.0 (24) using Bioconductor packages (25)]. Raw microarray data from CEL files were read with ‘affy’ package (26) and pre-processed by gcRMA algorithm (GC Robust Multiarray Average) that performs the three steps: (i) adjustment of the gene expression signal against the background caused by optical noise and non-specific binding, (ii) robust multi-array normalization (27), and (iii) summarization of the probes belonging to each probe set. Empirical Bayes adjustment was applied and p-values were corrected for multiple testing. […] The selected list of genes was analysed with hypergeometric testing that applies Fisher's exact test to find association between interesting genes and membership within the KEGG pathway(s).
# The experiment followed a 2×2 factorial design with 2 factors: LPS and ABA, each with 2 levels: absence and presence. Thus there were four groups of mice: LPS & ABA, LPS & control, no LPS & control, no LPS & ABA. The design matrix, constructed in the package ‘limma’, defined coefficients for LPS main effect, ABA main effect and the interaction effect. […] These 43 probe sets were uploaded to IPA8.0 for Ingenuity Pathway Analysis (Ingenuity Systems, Redwood City, Calif.).
# NF-κB [2] = test: NF-κB reporter activity assay in 3T3-L1 cells
# Influenza A/Udorn (H3N2) [3] = test: Dietary (prophylactic) ABA, influenza virus challenge in mice; type: in vivo, mouse; conditions: for survival: ABA diet
# PPAR γ = test: LANCL2 siRNA and PPAR γ co-transfections in RAW macrophages; type: cell-based
# Description: LANCL2 siRNA and PPAR γ co-transfections—RAW macrophages were transfected with the PPAR γ plasmid as described in the preceding section with or without LANCL2 siRNA. Specifically, RAW macrophages were then co-transfected with 0.2-μg plasmid DNA and 0.25 μL LANCL2 siRNA (20 μM) per well using the Lipofectamine 2000 transfection reagent (Invitrogen). […] After incubation, RAW macrophages were harvested in reporter lysis reagent and luciferase activity was determined as described above. LANCL2 mRNA was measured by RT-PCR in control wells to assess the efficiency of knockdown.
# Influenza A/Udorn (H3N2) [4] = test: Post-exposure ABA by gavage, Influenza A/Udorn challenge in mice; type: in vivo, mouse
# macrophages = test: Intracellular cAMP in macrophages; type: cell-based, mouse; conditions: 10 minutes
# Description: Intracellular cAMP in CD3/CD28-stimulated splenocytes and LPS-stimulated macrophages—Spleens were excised from C57BL6/J mice under sterile conditions. Cells were released by disrupting the tissue between frosted glass slides and red blood cells were lysed with erythrocyte lysis buffer. Splenocytes were enumerated with a Coulter Counter (Beckman Coulter, Fullerton, Calif.) and seeded in cRPMI at 1×10^6/ml onto 24-well plates pre-coated with anti-mouse CD3 (5 μg/mL; BD Pharmingen) and anti-mouse CD28 (1 μg/mL; BD Pharmingen). […] For intracellular assessment of cAMP, cells were harvested into 0.1 M HCl and the lysates were collected. The cAMP concentration of the lysates was determined using an EIA kit (Assay Designs, Ann Arbor, Mich.).
# NF-κB [5] = test: NF-κB activity in spleens of LPS-challenged mice; type: in vivo, mouse; conditions: spleen
# Description: NF-κB and NFAT activities—Spleens were diced into smaller pieces in lysis buffer containing dithiothreitol and a protease inhibitor cocktail and then further disrupted using a dounce ground glass homogenizer at 4° C. Nuclear extraction for tissue homogenate and BMM was performed using the Nuclear Extract kit (Active Motif, Carlsbad, Calif.) per the manufacturer's instructions. The extracts were used to perform a Bradford-based assay for quantifying the protein concentrations and stored at −80° C. NF-κB and NFATc1 activities were measured as previously described (13) by using the Trans-AM™ NF-κB p65 and the Trans-AM™ NFATc1 ELISA-based assays (Active Motif), respectively per the manufacturer's instructions.
# [6] = tested on: inactivated influenza virus PR8 antigens; test: Lymphocyte proliferation after influenza virus vaccination of mice; type: in vivo, mouse
# RAR = RAR reporter activity (data not shown); type: cell-based
# [7] = tested on: LPS-induced splenic gene expression; test: LPS challenge in mice, spleen real-time qRT-PCR
# [8] = tested on: LPS-induced systemic inflammation; test: LPS challenge in mice, immune cell subsets by flow cytometry; type: in vivo, mouse
# Description: Flow Cytometry—Mesenteric lymph nodes (MLN) and spleen-derived cells (2×10^5 cells/well) or whole blood (10 μL/well) were seeded onto 96-well plates, centrifuged at 4° C. at 3000 rpm for 4 minutes, and washed with PBS containing 5% fetal bovine serum and 0.09% sodium azide (FACS buffer). To assess differential monocyte/macrophage subsets, the cells were incubated in the dark at 4° C. for 20 minutes in FcBlock (20 μg/ml; BD Pharmingen), and then for an additional 20 minutes with fluorochrome-conjugated primary antibodies anti-F4/80-PE-Cy5 (5 μg/mL, eBioscience) and anti-CD 11b-Alexa Fluor 700 (2 μg/mL, eBioscience), and anti-TLR-4-PE-Cy7 (2 μg/mL, eBioscience). For lymphocyte assessment, cells were incubated with anti-CD4-FITC (2 μg/mL; BD Pharmingen), anti-CD8-PerCp-Cy5.5 (2 μg/mL, eBioscience), CD3 PE-Cy5 (2 μg/mL; BD Pharmingen), anti-TLR-4 PE-Cy7, and anti-IL17A-PE (2 μg/mL, eBioscience) as previously shown (23). Flow results were computed with a BD LSR II flow cytometer and data analyses was performed with FACS Diva software (BD).
# lymphocytes = test: IL-2 production and lymphocyte proliferation (unpublished data); type: cell-based
# [9] = network analysis, LPS challenged mice
# [10] = mice lacking PPAR γ in immune cells
structure (smiles),measurement,setting,value
"CC1=CC(=O)CC(C)(C)C1(O)/C=C/C(C)=C\C(=O)O (racemic) [ABA, abscisic acid]",NF-κB p65 activity in nuclear extracts,"NF-κB p65; 2.5 μM ABA, PPAR γ-expressing primary macrophages",significantly decreased
same,NF-κB activity,NF-κB p65; macrophages with loss of PPAR γ,further activation induced by ABA
same,magnitude of LPS-modulated gene expression (fold-change),"[1]; 64 genes, spleen",attenuated
same,ABA effect on LPS-induced gene expression,[1]; absence of functional immune cell PPAR γ,impaired (or abrogated)
same,"nuclear receptors (PPAR γ, PPAR α, RXRα, RXRβ)",[1]; [9],up-regulation
same,"pro-inflammatory genes (IL-6, IL-1β, MIF and IFN-γ)",[1]; [9],down-regulation
same,"expression of IL-6, IFN-γ, TNF-α induced protein 2 and chemokine ligand 11","[1]; spleen, 6 hours post LPS",down-regulated
same,NF-κB reporter activity,NF-κB [2],significantly suppressed
same,survival,Influenza A/Udorn (H3N2) [3]; WT mice,100%
same,maximum loss of original body weight,"Influenza A/Udorn (H3N2) [3]; WT mice, ABA diet 100 mg/kg of diet",5%
same,lung MCP-1 mRNA expression,"Influenza A/Udorn (H3N2) [3]; WT mice, vs control diet",consistently lower levels of MCP-1 mRNA expression
same,extent of vascular infiltrates,"Influenza A/Udorn (H3N2) [3]; WT, vs control diet",diminished
same,infiltration of respiratory airways,"Influenza A/Udorn (H3N2) [3]; WT, vs control diet",diminished
same,lung MCP-1 mRNA expression,Influenza A/Udorn (H3N2) [3]; cKO mice,failed to down-regulate MCP-1 expression
same,beneficial effect on lung inflammatory cell infiltration,Influenza A/Udorn (H3N2) [3]; cKO mice fed ABA,abrogated
same,survival,Influenza A/Udorn (H3N2) [3]; cKO mice,71.2%
same,viral loads in the lungs,Influenza A/Udorn (H3N2) [3]; day 4 post-infection,no significant differences
same,expression of PPAR γ in BAL-derived cells,"Influenza A/Udorn (H3N2) [3]; healthy non-infected WT mice, 36 days",significantly increased
same,epithelial recovery,Influenza A/Udorn (H3N2) [3]; lung histopathology,neither did it have any effect
same,extent of epithelial necrosis,"Influenza A/Udorn (H3N2) [3]; lung histopathology, days 2, 4, 7",did not affect
same,weight loss,Influenza A/Udorn (H3N2) [3]; mice with defective PPAR γ expression in immune and epithelial cells (cKO),behaved similar to WT mice fed the control diet
same,PPAR γ reporter activity,"PPAR γ; normal LANCL2, ABA 1.25-10 μM, Ros 1 or 10 μM, vs untreated cells",significantly elevated PPAR γ
same,PPAR γ reporter activity,PPAR γ; with LANCL2 siRNA,neither ABA nor Ros significantly affected PPAR γ activity
same,weight loss,Influenza A/Udorn (H3N2) [4]; 50 mg/kg,"slightly suppressed weight loss, although the differences were not statistically significant"
same,weight loss and recovery,"Influenza A/Udorn (H3N2) [4]; 100 mg/kg oral gavage once daily 10 days, from 4 hours post-infection",suppressed weight loss for both strains and accelerated recovery
same,accumulation of pro-inflammatory tipDC in lung,"Influenza A/Udorn (H3N2) [4]; 100 mg/kg, 7 dpi, FACS",lowered the accumulation of pro-inflammatory tipDC
same,expression of MCP-1 in lungs,Influenza A/Udorn (H3N2) [4]; 3 and 7 dpi,lowered expression of MCP-1
same,pulmonary angiopoietin like 4 (ANGIOPL4) mRNA expression,Influenza A/Udorn (H3N2) [4]; day 7 post-infection,upregulated
same,pulmonary interleukin-10 (IL-10) mRNA expression,Influenza A/Udorn (H3N2) [4]; day 7 post-infection,upregulated
same,pulmonary 5-LOX activating protein (FLAP) expression,Influenza A/Udorn (H3N2) [4]; day 10 post-infection,upregulation
same,pulmonary 5-lipooxygenase (5-LOX) expression,Influenza A/Udorn (H3N2) [4]; day 10 post-infection,upregulation
same,pulmonary LANCL2 expression,Influenza A/Udorn (H3N2) [4]; day 10 post-infection,upregulation
same,pulmonary PPAR γ expression,Influenza A/Udorn (H3N2) [4]; day 10 post-infection,upregulation
same,epithelial necrosis,"Influenza A/Udorn (H3N2) [4]; lung, WT",ameliorated
same,mucosal and submucosal inflammatory cell infiltration,"Influenza A/Udorn (H3N2) [4]; lung, WT",ameliorated
same,perivascular cuffing,"Influenza A/Udorn (H3N2) [4]; lung, WT",ameliorated
same,terminal airway infiltration,"Influenza A/Udorn (H3N2) [4]; lung, WT",ameliorated
same,beneficial effects on lung inflammatory lesions,Influenza A/Udorn (H3N2) [4]; mice lacking PPAR γ in myeloid cells (myeloid KO),abrogated
same,concentration at cAMP peak,macrophages,2.5 µM
same,cAMP peak over control,macrophages; 2.5 μM,10%
same,NF-κB activity,NF-κB [5],did not affect
same,antigen-specific lymphoproliferative recall responses,"[6]; ABA diet 100 mg/kg, days 14 and 21 post-vaccination",increased
same,immunostimulatory effect on responses to influenza vaccination,[6]; [10],attenuated
same,RAR reporter activity,RAR,does not increase
same,iNOS mRNA expression,[7]; data not shown,no effect
same,effects of ABA on splenic gene expression,[7]; [10],abrogated
same,NCOA6 mRNA expression,[7]; regardless of the LPS challenge,increased
same,Glut4 mRNA,"[7]; spleen, LPS challenge",mitigated the LPS-mediated suppression
same,PPAR γ mRNA,"[7]; spleen, LPS challenge",mitigated the LPS-mediated suppression
same,TNF-α mRNA,"[7]; spleen, LPS challenge",suppressed LPS-mediated up-regulation
same,TLR4 expression levels by macrophages,[8]; LPS-treated PPAR γ-expressing mice,reduced
same,percentages of blood monocytes (F4/80+CD11b+),"[8]; LPS-treated immune cell-specific PPAR γ null mice, diet 36 days",significantly increased
same,TLR4 expression in CD8+ T cells,[8]; non-LPS treated mice,significantly reduced
same,TLR4 expression in MLN F4/80+CD11b+ macrophages,[8]; supplemented diet 36 days,significantly suppressed
same,IL-2 production,lymphocytes,increases
same,lymphocyte proliferation,lymphocytes,increases
